In patent US7041701B2, “Triterpenoid derivatives” (Univerzita Palackeho V Olomouci, priority 2000, dated 2006):

What was measured:
[1] = test system: B16 mouse melanoma; experiment: MTT cytotoxicity assay, B16; assay type: cell-based; details: 72 hours, read-out: TCS50
Description: (§1) One of the parameters used as the basis for colorimetric assays is the metabolic activity of viable cells. For example, a microtiter assay which uses the tetrazolium salt MTT is now widely used to quantitate cell proliferation and cytotoxicity [Hajdúch M, Mihál V, Minarík J, Fáber E, Safárová M, Weigl E, Antálek P.: Cytotechnology, 1996, 19, 243–245]. For instance, this assay is used in drug screening programs and in chemosensitivity testing. Because tetrazolium salts are cleaved only by metabolically active cells, these assays exclusively detect viable cells. In the case of the MTT assay, yellow soluble tetrazolium salt is reduced to a coloured water-insoluble formazan salt. After it is solubilized, the formazan formed can easily and rapidly be quantified in a conventional ELISA plate reader at 570 nm (maximum absorbancy). The quantity of reduced formazan corresponds to the number of vital cells in the culture. […]
(§2) The cell suspensions that were prepared and diluted according to the particular cell type and the expected target cell density (2,500–30,000 cells per well based on cell growth characteristics) were added by pipette (80 μl) into 96/well microtiter plates. […] Usually, test compounds were evaluated at six 4-fold dilutions. […] The tumour cell survival (TCS) was calculated using the following equitation: TCS=(ODdrug exposed well/mean ODcontrol wells)×100%. […]

[2] = test system: B16F mouse melanoma, metastatic; experiment: MTT cytotoxicity assay, B16F; assay type: cell-based; details: 72 hours, read-out: TCS50
Description: as §1, §2

[3] = test system: U2OS human osteosarcoma, p53+/−, Rb+/−; experiment: MTT cytotoxicity assay, U2OS; assay type: cell-based; details: 72 hours, read-out: TCS50
Description: as §1, §2

[4] = test system: OVCAR-3 human ovarian cancer; experiment: MTT cytotoxicity assay, OVCAR-3; assay type: cell-based; details: 72 hours, read-out: TCS50
Description: as §1, §2

[5] = test system: MEL-3 human melanoma; experiment: MTT cytotoxicity assay, MEL-3; assay type: cell-based; details: 72 hours, read-out: TCS50
Description: as §1, §2

[6] = test system: human normal lymphocytes; experiment: MTT cytotoxicity assay, normal lymphocytes; assay type: cell-based; details: 72 hours, read-out: TCS50
Description: as §1, §2

[7] = test system: A549 lung cancer cells; experiment: Apoptosis morphology by scanning electron microscopy; assay type: cell-based, human; details: A549, 2 μM, 12 hours, scanning electron microscopy (FIG. 1)
Description: To analyse the mechanisms of betulinine-induced cytotoxicity, it is important to distinguish apoptosis from the other major form of cell death, necrosis. Finally, at the tissue level, apoptosis produces little or no inflammation, since shrunken portions of the cell are engulfed by the neighbouring cells, especially macrophages, rather than being released into the extracellular fluid. In contrast, in necrosis, cellular contents are released into the extracellular fluid, and thus have an irritant affect on the nearby cells, causing inflammation. […] Thirdly, at the molecular level, a number of biochemical processes play an important role in the induction of apoptosis. However, the majority of them are not well understood, and they result in activation of proteases and nucleases, which finally destruct key biological macromolecules—proteins and DNA. For the detection of apoptotic versus necrotic modes of cell death, the morphology was assessed by scanning electron microscopy.
A549 cell line was cultured on tissue culture treated glass coverslips in 6-well culture plates with or without 2 μM concentration of I.3 or betulinic acid at 37° C. and 5% CO2 for 12 hours. Following incubation, the coverslips were washed in Hank's buffered salt solution and processed as described below.
Cells were fixed in 2% glutaraldehyde/PBS overnight at 4° C., dried and covered with gold under vacuum. […]

[8] = test system: human SK-N-AS neuroblastoma; experiment: In vivo activity in xenotransplanted human neuroblastoma; set-up: species or system CD-1/Ctrl-1 nu/nu nude female mice; details: I.3 1 or 2 mg/mouse s.c. or i.p., 3×D1,2,5,6,9,10; SK-N-AS in nude mice (FIG. 2)
Description: Human neuroblastoma SK-N-AS cell line was obtained from ATTC. The line was cultured in Dulbeco's modified essential medium with 4.5 g dextrose/l, 10% of foetal calf serum, 2 mM glutamine, 100 U/ml penicillin and […] streptomycin. For transplantation purposes, only the cells in log phase were used.
CD-1/Ctrl-1 nu/nu nude female mice, 8 weeks old, 18–22 g weight were used in this study (IffaCredo, France). Animals were inoculated with 5.10^6 tumour cells subcutaneously into right inquinal region. Following transplantation, tumor growth was measured in both the control/vehicle and the treated groups using calipers. Tumor volume (TV) was calculated as follows: TV=(a^2×b)/2, where a is width and b is length The statistical significance was evaluated using a […].
Cisplatin (Platidiam 10 inj, sicc., Lachema, Czech Republic) was used as a control drug in this experiment. It was diluted in apyrogenic water and applied to animals in a final volume of 0.18 ml subcutaneously at day 1.
I.3 was synthesised as described above. It was suspended at 10 mg/ml in 5% dextrose and pH was adjusted to 8.0 with sodium hydroxide. vehicle: 5% dextrose with pH adjusted to 8.0 with sodium hydroxide. […]

CC(=O)OC[C@@]1(C(=O)O)CC[C@]2(C)[C@H](CC[C@@H]3[C@@]4(C)CC[C@H](OC(C)=O)C(C)(C)[C@@H]4CC[C@]32C)C1=O [I.3, 3β,28-diacetoxy-18-oxo-19,20,21,29,30-pentanorlupan-22-oic acid]
IC50 [1]: 2100 nM
IC50 [2]: 4700 nM
IC50 [3]: 1500 nM
IC50 [4]: 1000 nM
IC50 [5]: 1300 nM
IC50 [6]: 13000 nM
morphologic markers of apoptosis [7]: cytoplasmatic blebbing, cellular fragmentation and formation of apoptotic bodies
tumor growth (tumor volume) [8]: no tumor growth
